Measured values from article PMC7824033, “Flavones, Flavonols, and Glycosylated Derivatives—Impact on Candida albicans Growth and Virulence, Expression of CDR1 and ERG11, Cytotoxicity” (Pharmaceuticals, 2020).
Values after ≈ are worked out from the molar mass of the structure shown. Like-named read-outs stand apart in the source and are kept apart here.

Columns and labels:
CDR1 [1] = details: identical assay, previously published; cited from earlier work
[2] = tested on: C. albicans 475/15 biofilm formation; experiment: Inhibition of biofilm formation (crystal violet); type: cell-based, Candida albicans
Procedure: Potential of selected compounds to interfere with C. albicans 475/15 biofilm formation was investigated as previously described. Briefly, C. albicans 475/15 was incubated with serial dilution of the compounds (MIC and subMICs) in YPD medium, in 96-well microtiter plates with adhesive bottom (Sarstedt, Nümbrecht, Germany), at 37 °C for 24 h. After incubation, wells were washed twice with sterile PBS and methanol was added into each well. After fixation, methanol was discarded, and the plate was air dried. Formed biofilms were stained with 0.1% crystal violet (Bio-Merieux, Craponne, France) for 30 min. The plate was gently washed under the tap of water and air dried. The stain bound to the remaining biofilms was dissolved with ethanol (96%, Zorka, Šabac, Serbia). Absorbance was read on a Multiskan™ FC Microplate Photometer, Thermo Scientific™. The percentage of inhibition of biofilm formation was calculated by the formula:[(A620control − A620sample)/A620control] × 100

[3] = Cytotoxicity, Sulforhodamine B assay; details: pig
Procedure: Preparation of PLP2 cell line was performed with freshly harvested porcine liver supplied from a local slaughter house. Tissues from the liver were washed in Hank’s balanced salt solution comprising 100 U/mL penicillin and 100 μg/mL streptomycin and split into 1 × 1 mm^3 explants. Some of the prepared explants were set in 25 cm^2 tissue flasks in Dulbecco’s modified Eagle’s medium (DMEM) with 10% fetal bovine serum (FBS), 2 mM nonessential amino acids, 100 U/mL penicillin, and […] streptomycin, and incubation was conducted at 37 °C with 5% CO2 in a humidified atmosphere. The fresh medium was added every 2 days. Cultivation of the cells was further conducted with direct observation by the phase contrast microscope every 2–3 days. Before confluence was achieved, cells were subcultured and seeded in 96-well plates at a density of 1.0 × 10^4 cells per well and cultivated in DMEM supplemented with 10% FBS, 100 U/mL penicillin, and 100 μg/mL streptomycin. Previously described Sulforhodamine B assay was used for the determination of cytotoxicity. The obtained results were defined as GI50 values corresponding to the compound concentration that inhibits 50% of the net cell growth. Ellipticine was used as a positive control.

CDR1 [4] = experiment: Expression of CDR1 (qPCR); type: cell-based, Candida albicans; details: treatment with MIC
Procedure: Total RNA was isolated as described by Sanglard et al. with some modifications. C. albicans 475/15 was grown with agitation at 30 °C in YEPD until OD540 = 0.4. C. albicans cells were incubated with MIC of compounds in YEPD at 30 °C with agitation for 30 min. Cells were centrifuged (4600 rpm, 4 °C for 5 min (Rotanata 460 R, Hettich, Tuttlingen, Germany)) and the pellet was resuspended in 300 µL of RNA buffer (0.1 M Tris-HCl pH 7.5, 0.1M LiCl, 10mM EDTA, 0.5% SDS). The pellet was homogenized with 200 µL of DEPC treated glass beads and 300 µL of Phenol:Chloroform:Isoamyl Alcohol (Sigma-Aldrich, Darmstadt, Germany) in Precellys Evolution tissue homogenizer (Bertion instruments, Montigny-le-Bretonneux, France) at 4500 rpm for 5 s. After centrifugation (14,000 rpm, 4 °C, 1 min (Universal 32 R, Hettich, Tuttlingen, Germany)) 200 µL of supernatant was vortexed with 250 µL of Phenol:Chloroform:Isoamyl Alcohol for 10 s. Samples were centrifuged (14,000 rpm, 4 °C, 1 min) and 200 µL of supernatant was transferred to new tubes, 400 µL of ice-cold 99% ethanol was added to each tube, and they were kept on dry ice for 10 min. Samples were centrifuged (14,000 rpm, 4 °C, 2 min), pellet was washed with ethanol (70%), left to dry at room temperature, after which it was dissolved in 50 µL of DEPC treated water. Nanodrop (ND-1000, Witec AG, Sursee, Switzerland) was used for determination of concentration and purity of samples. RNA was stored at −80°C.
Amount of 10 µg RNA was incubated with 5 µL of DNAse buffer and 1 µL of DNAse at 37 °C for 30 min (DNA-free™ DNA Removal Kit, Ambion, Bleiswijk, Netherlands). After addition of DNAse inactivation reagent tubes were kept at room temperature with occasional vortexing for 5 min. Samples were centrifuged (14,000 rpm, 4°C, 2 min) and the concentration and quality of supernatant were analyzed on Nanodrop (ND-1000, Witec AG, Sursee, Switzerland).
Synthesis of cDNA was done with a Transcriptor High Fidelity cDNA synthesis kit (Roche). RNA (1 µg) was incubated with 60 µM random hexamer primers, in 11.4 µL of total sample volume, at 65 °C for 10 min. The mixture of Transcriptase reaction buffer 5×, Deoxynucleotide mix, DTT, Protector RNAse inhibitor, and Transcriptor High Fidelity Reverse Transcriptase was added to each tube according to manufacturer instructions. Synthesis of cDNA was completed by incubating the mixture at 50 °C for 30 min and 85 °C for 5 min (Peqstar thermocycler, Peqlab, Erlangen, Germany).
Wells of MicroAmp Fast 96-Well Reaction plate ((0.1 mL), Applied biosystems, Waltham, MA, USA) were incubated with 10 µL of mixture (cDNA, 2× MasterMix, primers, probe (Table 3), and water). Analysis was performed in StepOnePlus Real Time PCR system with relative standard curve method. Expression levels of CDR1 and ERG11 were normalized to expression of ACT1.

C. albicans = details: cited from earlier work
Candida albicans = experiment: Microdilution assay, MIC (strain not named); type: cell-based; details: read-out: minimum inhibitory concentration (MIC)
Description: (§1) C. albicans was isolated from oral cavities of patients at ENT Clinic, Clinical Hospital Centre Zvezdara, Belgrade, Serbia after obtaining informed written consent and identified by using CHROMagar plates (Biomerieux, Craponne, France). Strains were maintained on Sabouraud Dextrose Agar (Merck, Darmstadt, Germany) and are deposited at the Mycological Laboratory, Department of Plant Physiology, Institute for Biological Research “Siniša Stanković”, National Institute of Republic of Serbia, University of Belgrade. The collection of samples was approved by the Ethical Committee (Office for Human Research Protection, Zvezdara University Medical Center, Belgrade, Serbia, document issued 26 October 2016).
(§2) Microdilution assay with some modification was used for determination of minimum inhibitory (MIC) and minimum fungicidal concentrations (MFC). Yeast cultures were adjusted to 1.0 × 10^5 CFU/per well with sterile PBS (Phosphate buffered saline, pH 7.4). The 96-well microtiter plates with serially diluted flavonoids (concentration range 0.3–75 µg/mL) in liquid broth were incubated at 37 °C for 24 h. After incubation, MIC and MFC were determined. The lowest concentrations that were not inducing microscopically observed growth were considered as MIC. For microscopic determination of growth, we used inverted microscope Nikon Eclipse TS2 (Amsterdam, Netherland) and examined the fungal growth in the wells of 96-well microtiter plates compared to the control (untreated yeast cells). MFC values were determined as concentrations without visible growth after serial sub-cultivation of 10 µL of samples at 37 °C for 24 h. Ketoconazole and amphotericin B (SigmaAldrich, Darmstadt, Germany) were used as an antifungal control. The tested flavonoids were obtained from Extrasynthese, Rhone, France.

C. albicans biofilm = details: C. albicans CAD1 biofilm; cited from earlier work
C. albicans 475/15 = experiment: Microdilution assay, MIC and MFC; type: cell-based; details: Candida albicans, 475/15
Description: as §1, §2

C. albicans 13/15 = experiment: Microdilution assay, MIC and MFC; type: cell-based; details: Candida albicans, 13/15
Description: as §1, §2

C. albicans 10/15 = experiment: Microdilution assay, MIC and MFC; type: cell-based; details: Candida albicans, 10/15
Description: as §1, §2

C. albicans 527/14 = experiment: Microdilution assay, MIC and MFC; type: cell-based; details: Candida albicans, 527/14
Description: as §1, §2

## O=c1c(O[C@@H]2O[C@H](CO)[C@@H](O)[C@H](O)[C@H]2O)c(-c2ccc(O)cc2)oc2cc(O)cc(O)c12 [astragalin]
CDR1 [1]
  impact on CDR1 expression: inhibitory impact

## C[C@@H]1O[C@@H](Oc2c(-c3ccc(O)c(O)c3)oc3cc(O)cc(O)c3c2=O)[C@H](O)[C@H](O)[C@H]1O [Quercitrin, quercitrin]
[2]; MIC and subMICs
  antibiofilm activity: lowest potential to reduce biofilm formation
[2]; compound applied at MIC
  inhibition of biofilm formation: less than 50%
[3]
  GI50: 73 ± 3 µg/mL (≈ 163 µM)
CDR1 [4]
  impact on CDR1 expression: downregulated
C. albicans; C. albicans ATCC 10231, ref 17
  MIC: 100 µg/mL (≈ 223 µM)
C. albicans; C. albicans CAD1, clinical isolate
  MIC: > 512 µg/mL
Candida albicans
  MIC: 37.5 µg/mL (≈ 83.6 µM)
C. albicans biofilm
  antibiofilm activity: complete lack of activity
C. albicans 475/15
  MFC: 75 ± 3 µg/mL (≈ 167 µM)
  MIC: 37.5 ± 2 µg/mL (≈ 83.6 µM)
C. albicans 13/15
  MFC: 75 ± 3 µg/mL (≈ 167 µM)
  MIC: 37.5 ± 1 µg/mL (≈ 83.6 µM)
C. albicans 10/15
  MFC: 75 ± 3 µg/mL (≈ 167 µM)
  MIC: 37.5 ± 2 µg/mL (≈ 83.6 µM)
C. albicans 527/14
  MFC: 75 ± 3 µg/mL (≈ 167 µM)
  MIC: 37.5 ± 2 µg/mL (≈ 83.6 µM)

## Cc1c2ccncc2c(C)c2c1[nH]c1ccccc12 [Ellipticin, Ellipticine, reference compound]
[3]
  GI50: 3.22 ± 0.2 µg/mL (≈ 13.1 µM)
